# Where two headings read alike, the source gives them in different places.
# Legend:
# E. faecium ATCC 27270 = format: cell-based, Enterococcus faecium
# Summary of the method: (§1)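 Checkerboard synergy assay: antibiotic and OMP combined at varying concentrations with 5 × 10^5 CFU/mL inoculum (final), 37 °C, 18 h; growth read as turbidity at 590 nm. FICI = sum of FICs (MIC in combination / MIC alone); ≤0.5 synergistic, 0.5–4 additive, >4 antagonistic.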
# K. pneumoniae 113250 = format: cell-based, Klebsiella pneumoniae; conditions: for MICUTBLP: UTBLP alone
# Summary of the method: as §1
# A. baumannii ATCC 17978 = format: cell-based, Acinetobacter baumannii; conditions: for MICUTBLP: UTBLP alone
# Summary of the method: as §1
# A. baumannii 92247 = format: cell-based, Acinetobacter baumannii; conditions: for MICUTBLP: UTBLP alone
# Summary of the method: as §1
# A. baumannii AB027 = format: cell-based, Acinetobacter baumannii; conditions: for MICUTBLP: UTBLP alone
# Summary of the method: as §1
# MSSE 81388 = format: cell-based, Staphylococcus epidermidis
# Summary of the method: as §1
# MRSE 61589 = format: cell-based, Staphylococcus epidermidis
# Summary of the method: as §1
# E. faecalis ATCC 29212 = format: cell-based, Enterococcus faecalis; conditions: ATCC 29212, 18 h
# Summary of the method: (§2)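 Turbidity at 590 nm defined growth, from which the MIC was taken. Cultures at a final density of 5 × 10^5 CFU/mL were exposed to a range of compound levels at 37 °C for 18 h in a CLSI-based microdilution format.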
# P. aeruginosa PAO1 = format: cell-based, Pseudomonas aeruginosa; conditions: for MICUTBLP: UTBLP alone
# Summary of the method: as §1
# [1] = test system: P. aeruginosa PA259-96196; format: cell-based, Pseudomonas aeruginosa; conditions: for MICUTBLP: UTBLP alone
# Summary of the method: as §1
# E. cloacae 118564 = format: cell-based, Enterobacter cloacae; conditions: for MICUTBLP: UTBLP alone
# Summary of the method: as §1
# E. coli 94393 = test: microbe, parasite or virus in culture; format: cell-based, Escherichia coli; conditions: 94393, 18 h
# Summary of the method: as §2
# E. coli 94474 = test: microbe, parasite or virus in culture; format: cell-based, Escherichia coli; conditions: 94474, 18 h
# Summary of the method: as §2
# MRSA ATCC 33592 = format: cell-based, Staphylococcus aureus; conditions: ATCC 33592, 18 h
# Summary of the method: as §2
# S. aureus ATCC 29213 = format: cell-based, Staphylococcus aureus; conditions: ATCC 29213, 18 h
# Summary of the method: as §2
# E. coli ATCC 25922 = format: cell-based, Escherichia coli; conditions: ATCC 25922, 18 h
# Summary of the method: as §2
# [2] = UTBLP alone, plate with chloramphenicol
# [3] = UTBLP in combination with chloramphenicol
# [4] = chloramphenicol in combination with the UTBLP
# [5] = UTBLP in combination with novobiocin
# [6] = UTBLP in combination with rifampicin
# [7] = novobiocin in combination with the UTBLP
# [8] = rifampicin in combination with the UTBLP
# [9] = UTBLP in combination with niclosamide
# [10] = niclosamide in combination with the UTBLP
smiles,measurement,setting,value
CCCCCCCC(=O)N[C@@H](CCCCN)C(=O)NCCCN(CCCNC(=O)[C@H](CCCCN)NC(=O)CCCCCCC)CC(=O)N[C@@H](CCCCN)C(N)=O [UTBLP 1],Interpretation,E. faecium ATCC 27270; UTBLP + chloramphenicol,Additive (0.5 < x ≤ 4 is additive)
same,MICUTBLP,E. faecium ATCC 27270; [2],64 µg/mL
same,MICUTBLP [MICcombo],E. faecium ATCC 27270; [3],0.25 µg/mL
same,MICchloramphenicol [MICcombo],E. faecium ATCC 27270; [4],8 µg/mL
same,Interpretation,K. pneumoniae 113250; UTBLP + novobiocin,Synergy (FICI ≤ 0.5 is synergistic)
same,Interpretation,K. pneumoniae 113250; UTBLP + rifampicin,Synergy (FICI ≤ 0.5 is synergistic)
same,MICUTBLP,K. pneumoniae 113250; plate with novobiocin,> 128 µg/mL
same,MICUTBLP,K. pneumoniae 113250; plate with rifampicin,> 128 µg/mL
same,MICUTBLP [MICcombo],K. pneumoniae 113250; [5],8 µg/mL
same,MICUTBLP [MICcombo],K. pneumoniae 113250; [6],16 µg/mL
same,MICantibiotic [MICcombo],K. pneumoniae 113250; [7],16 µg/mL
same,MICantibiotic [MICcombo],K. pneumoniae 113250; [8],0.5 µg/mL
same,Interpretation,A. baumannii ATCC 17978; UTBLP + chloramphenicol,Additive (0.5 < x ≤ 4 is additive)
same,Interpretation,A. baumannii ATCC 17978; UTBLP + niclosamide,Synergy (FICI ≤ 0.5 is synergistic)
same,Interpretation,A. baumannii ATCC 17978; UTBLP + novobiocin,Synergy (FICI ≤ 0.5 is synergistic)
same,Interpretation,A. baumannii ATCC 17978; UTBLP + rifampicin,Synergy (FICI ≤ 0.5 is synergistic)
same,MICUTBLP,A. baumannii ATCC 17978; plate with chloramphenicol,> 128 µg/mL
same,MICUTBLP,A. baumannii ATCC 17978; plate with niclosamide,> 128 µg/mL
same,MICUTBLP,A. baumannii ATCC 17978; plate with novobiocin,> 128 µg/mL
same,MICUTBLP,A. baumannii ATCC 17978; plate with rifampicin,> 128 µg/mL
same,MICUTBLP [MICcombo],A. baumannii ATCC 17978; [3],32 µg/mL
same,MICUTBLP [MICcombo],A. baumannii ATCC 17978; [9],8 µg/mL
same,MICUTBLP [MICcombo],A. baumannii ATCC 17978; [5],16 µg/mL
same,MICUTBLP [MICcombo],A. baumannii ATCC 17978; [6],8 µg/mL
same,MICantibiotic [MICcombo],A. baumannii ATCC 17978; [4],32 µg/mL
same,MICantibiotic [MICcombo],A. baumannii ATCC 17978; [10],0.5 µg/mL
same,MICantibiotic [MICcombo],A. baumannii ATCC 17978; [7],0.125 µg/mL
same,MICantibiotic [MICcombo],A. baumannii ATCC 17978; [8],0.125 µg/mL
same,Interpretation,A. baumannii 92247; UTBLP + novobiocin,Synergy (FICI ≤ 0.5 is synergistic)
same,Interpretation,A. baumannii 92247; UTBLP + rifampicin,Synergy (FICI ≤ 0.5 is synergistic)
same,MICUTBLP,A. baumannii 92247; plate with novobiocin,64 µg/mL
same,MICUTBLP,A. baumannii 92247; plate with rifampicin,64 µg/mL
same,MICUTBLP [MICcombo],A. baumannii 92247; [5],4 µg/mL
same,MICUTBLP [MICcombo],A. baumannii 92247; [6],4 µg/mL
same,MICantibiotic [MICcombo],A. baumannii 92247; [7],0.25 µg/mL
same,MICantibiotic [MICcombo],A. baumannii 92247; [8],0.125 µg/mL
same,Interpretation,A. baumannii AB027; UTBLP + novobiocin,Synergy (FICI ≤ 0.5 is synergistic)
same,Interpretation,A. baumannii AB027; UTBLP + rifampicin,Synergy (FICI ≤ 0.5 is synergistic)
same,MICUTBLP,A. baumannii AB027; plate with novobiocin,128 µg/mL
same,MICUTBLP,A. baumannii AB027; plate with rifampicin,128 µg/mL
same,MICUTBLP [MICcombo],A. baumannii AB027; [5],8 µg/mL
same,MICUTBLP [MICcombo],A. baumannii AB027; [6],8 µg/mL
same,MICantibiotic [MICcombo],A. baumannii AB027; [7],0.125 µg/mL
same,MICantibiotic [MICcombo],A. baumannii AB027; [8],0.063 µg/mL
same,Interpretation,MSSE 81388; UTBLP + chloramphenicol,Additive (0.5 < x ≤ 4 is additive)
same,MICUTBLP,MSSE 81388; [2],32 µg/mL
same,MICUTBLP [MICcombo],MSSE 81388; [3],0.25 µg/mL
same,MICchloramphenicol [MICcombo],MSSE 81388; [4],4 µg/mL
same,Interpretation,MRSE 61589; UTBLP + chloramphenicol,Additive (0.5 < x ≤ 4 is additive)
same,MICUTBLP,MRSE 61589; [2],32 µg/mL
same,MICUTBLP [MICcombo],MRSE 61589; [3],16 µg/mL
same,MICchloramphenicol [MICcombo],MRSE 61589; [4],2 µg/mL
same,MIC,E. faecalis ATCC 29212,128 µg/mL
same,Interpretation,P. aeruginosa PAO1; UTBLP + chloramphenicol,Synergy (FICI ≤ 0.5 is synergistic)
same,Interpretation,P. aeruginosa PAO1; UTBLP + niclosamide,Additive (0.5 < x ≤ 4 is additive)
same,Interpretation,P. aeruginosa PAO1; UTBLP + novobiocin,Synergy (FICI ≤ 0.5 is synergistic)
same,Interpretation,P. aeruginosa PAO1; UTBLP + rifampicin,Synergy (FICI ≤ 0.5 is synergistic)
same,MICUTBLP,P. aeruginosa PAO1; plate with chloramphenicol,> 128 µg/mL
same,MICUTBLP,P. aeruginosa PAO1; plate with niclosamide,> 128 µg/mL
same,MICUTBLP,P. aeruginosa PAO1; plate with novobiocin,> 128 µg/mL
same,MICUTBLP,P. aeruginosa PAO1; plate with rifampicin,> 128 µg/mL
same,MICUTBLP [MICcombo],P. aeruginosa PAO1; [3],2 µg/mL
same,MICUTBLP [MICcombo],P. aeruginosa PAO1; [9],0.25 µg/mL
same,MICUTBLP [MICcombo],P. aeruginosa PAO1; [5],16 µg/mL
same,MICUTBLP [MICcombo],P. aeruginosa PAO1; [6],4 µg/mL
same,MICantibiotic [MICcombo],P. aeruginosa PAO1; [4],4 µg/mL
same,MICantibiotic [MICcombo],P. aeruginosa PAO1; [10],1024 µg/mL
same,MICantibiotic [MICcombo],P. aeruginosa PAO1; [7],32 µg/mL
same,MICantibiotic [MICcombo],P. aeruginosa PAO1; [8],2 µg/mL
same,Interpretation,[1]; UTBLP + novobiocin,Synergy (FICI ≤ 0.5 is synergistic)
same,Interpretation,[1]; UTBLP + rifampicin,Synergy (FICI ≤ 0.5 is synergistic)
same,MICUTBLP,[1]; plate with novobiocin,> 128 µg/mL
same,MICUTBLP,[1]; plate with rifampicin,> 128 µg/mL
same,MICUTBLP [MICcombo],[1]; [5],8 µg/mL
same,MICUTBLP [MICcombo],[1]; [6],16 µg/mL
same,MICantibiotic [MICcombo],[1]; [7],128 µg/mL
same,MICantibiotic [MICcombo],[1]; [8],0.5 µg/mL
same,Interpretation,E. cloacae 118564; UTBLP + novobiocin,Synergy (FICI ≤ 0.5 is synergistic)
same,Interpretation,E. cloacae 118564; UTBLP + rifampicin,Synergy (FICI ≤ 0.5 is synergistic)
same,MICUTBLP,E. cloacae 118564; plate with novobiocin,> 128 µg/mL
same,MICUTBLP,E. cloacae 118564; plate with rifampicin,> 128 µg/mL
same,MICUTBLP [MICcombo],E. cloacae 118564; [5],8 µg/mL
same,MICUTBLP [MICcombo],E. cloacae 118564; [6],8 µg/mL
same,MICantibiotic [MICcombo],E. cloacae 118564; [7],2 µg/mL
same,MICantibiotic [MICcombo],E. cloacae 118564; [8],0.125 µg/mL
same,MIC,E. coli 94393,> 128 µg/mL
same,MIC,E. coli 94474,> 128 µg/mL
same,MIC,MRSA ATCC 33592,128 µg/mL
same,MIC,S. aureus ATCC 29213,64 µg/mL
same,MIC,E. coli ATCC 25922,>128 µg/mL
